Reference: PMC8402075, “Synthesis and Antiplasmodial Activity of Bisindolylcyclobutenediones” (Molecules, 2021)
Read-outs that look alike come from different tables or passages of the source.

Tests used:
[1] = system: P. falciparum (NF54-luc strain) erythrocytic stages; assay: Luciferase-based viability screening for antiplasmodial activity; type: cell-based, Plasmodium falciparum; conditions: for inhibition at 3 µM: read-out: Inhibition at 3 µM [%]
Method: All synthesized new bisindolylcyclobutenediones 2a–2ar and the related bisindolylmaleimide 8 [37] were screened for inhibition of erythrocytic stages of Plasmodium falciparum employing a bioluminescence-based viability assay on transgenic parasites that constitutively express luciferase (PfNF54-luc). Initially, the compounds were evaluated in single-dose test runs (3 µM). If >20% viability inhibition was observed, dose-response curves were generated and IC50 values were calculated (Table 1). […] The bisindolylmaleimide 8 [37] inhibited the parasites in a single-digit micromolar concentration, similar to many of the bisindolylcyclobutenediones in the study. Because the bisindolylcyclobutenediones 2 display a higher degree of structural novelty, only this compound class was further pursued for its antiplasmodial activity. […] These structural features were considered unfavorable for orientations as illustrated in Figure 2 with 2a and Pfmap-2, PfPK5, PfCDPK2, Pflammer, and PfPK7, respectively. However, a structure generated for 2a in PfGSK-3 in which the indole units are oriented perpendicular to each other (Figure 2a) was considered compatible with the indicated substitution pattern. Consequently, the potent antiplasmodial derivatives 2k, 2ad, and 2ae were tested in a kinase Glo assay for inhibition of recombinant PfGSK-3. […] For the compounds with particularly potent antiplasmodial activity, cytotoxicity was also determined using the human cell line THP-1 to assess selectivity with respect to parasite cells (Table 2).
Screening for the antiplasmodial activity of test compounds was performed by luciferase-based viability assays as reported previously. In brief, asexual erythrocytic stages of transgenic NF54-luc P. falciparum were cultured as described elsewhere. Parasite cultures with parasitaemia of 0.5–1% were incubated in the presence of 3 µM test compounds for 48 h. After the subsequent addition of Bright-Glo substrate solution (Promega, Madison, WI), the resulting luminescence was measured. Untreated cultures (0.01% DMSO) were used as negative controls. Experiments were performed in triplicate and were repeated as a whole at least twice. Blasticidin (Sigma-Aldrich, St. Louis, MO, USA) was included as a positive control.

human THP-1 cell line = assay: Cytotoxicity assay on human THP-1 cell line (Alamar Blue); type: cell-based; conditions: for Selectivity Index (SI) = IC50, THP-1/IC50, Pf: THP-1 versus P. falciparum NF54-luc; for IC50: human THP-1 cell line, 48 h, Alamar Blue
Method: The cytotoxicity of selected antiplasmodial bisindolylcyclobutenediones was determined against THP-1 cells following a protocol described previously. In brief, THP-1 cells were incubated with test compounds in serial compound dilutions in the presence of 0.01% DMSO at 37 °C. After 48 h, Alamar Blue was added, and after 4 h the fluorescence was read (λex = 544 nm, λem = 590 nm) using a microplate reader. THP-1 cells in wells containing medium plus 0.01% DMSO served as negative controls. Experiments were performed in triplicate and were repeated as a whole at least twice.

[2] = Plasmodium falciparum, NF54, 48 h, read-out: IC50 [µM], concentration for 50% inhibition of P. falciparum (NF54-luc strain) erythrocytic stages
[3] = Plasmodium falciparum, NF54, 48 h
[4] = Plasmodium falciparum, NF54, read-out: IC50 P. falciparum (quoted in the discussion)
[5] = Plasmodium falciparum, NF54, read-out: IC50, Pf [µM]

Compound	IC50 [1, 2] [µM]	inhibition at 3 µM [1, 3] [%]	further results
O=c1c(-c2c[nH]c3ccccc23)c(-c2c[nH]c3ccccc23)c1=O [2a, 3,4-Bis(1H-indol-3-yl)cyclobut-3-ene-1,2-dione]	8.33		
COc1ccc2[nH]cc(-c3c(-c4c[nH]c5ccc(F)cc45)c(=O)c3=O)c2c1 [2ab, 3-(5-Fluoro-1H-indol-3-yl)-4-(5-methoxy-1H-indol-3-yl)cyclobut-3-ene-1,2-dione]		19.2 ± 3.1	
COc1ccc2[nH]cc(-c3c(-c4c[nH]c5ccc(Cl)cc45)c(=O)c3=O)c2c1 [2ac, 3-(5-Chloro-1H-indol-3-yl)-4-(5-methoxy-1H-indol-3-yl)cyclobut-3-ene-1,2-dione]	1.52		
COc1ccc2[nH]cc(-c3c(-c4cn(C)c5ccc(Br)cc45)c(=O)c3=O)c2c1 [2ag, 3-(5-Bromo-1-methyl-1H-indol-3-yl)-4-(5-methoxy-1H-indol-3-yl)cyclobut-3-ene-1,2-dione]		-0.06 ± 2.43	IC50 [1, 4]: > 10 µM
COc1ccc2[nH]cc(-c3c(-c4c[nH]c5ccc(C#N)cc45)c(=O)c3=O)c2c1 [2ah, 3-[2-(5-Methoxy-1H-indol-3-yl)-3,4-dioxocyclobut-1-en-1-yl]-1H-indole-5-carbonitrile]	6.92		
COc1ccc2[nH]cc(-c3c(-c4c[nH]c5c(Cl)cccc45)c(=O)c3=O)c2c1 [2ai, 3-(7-Chloro-1H-indol-3-yl)-4-(5-methoxy-1H-indol-3-yl)cyclobut-3-ene-1,2-dione]	0.691	84.5 ± 1	IC50 [1, 5]: 0.69 µM; Selectivity Index (SI) = IC50, THP-1/IC50, Pf (human THP-1 cell line): 259; IC50 (human THP-1 cell line): 179000 nM
COc1ccc2[nH]cc(-c3c(-c4c[nH]c5c(Br)cccc45)c(=O)c3=O)c2c1 [2aj, 3-(7-Bromo-1H-indol-3-yl)-4-(5-methoxy-1H-indol-3-yl)cyclobut-3-ene-1,2-dione]	0.296	99.5 ± 0.4	IC50 [1, 5]: 0.3 µM; Selectivity Index (SI) = IC50, THP-1/IC50, Pf (human THP-1 cell line): 4.7; IC50 (human THP-1 cell line): 1420 nM
COc1ccc2[nH]cc(-c3c(-c4c[nH]c5c(I)cccc45)c(=O)c3=O)c2c1 [2ak, 3-(7-Iodo-1H-indol-3-yl)-4-(5-methoxy-1H-indol-3-yl)cyclobut-3-ene-1,2-dione]	0.116	98.8 ± 1.2	IC50 [1, 5]: 0.12 µM; Selectivity Index (SI) = IC50, THP-1/IC50, Pf (human THP-1 cell line): 7.0; IC50 (human THP-1 cell line): 840 nM
CCc1cccc2c(-c3c(-c4c[nH]c5ccc(OC)cc45)c(=O)c3=O)c[nH]c12 [2al, 3-(7-Ethyl-1H-indol-3-yl)-4-(5-methoxy-1H-indol-3-yl)cyclobut-3-ene-1,2-dione]	0.511	87 ± 0.5	IC50 [1, 5]: 0.51 µM; Selectivity Index (SI) = IC50, THP-1/IC50, Pf (human THP-1 cell line): 1.4; IC50 (human THP-1 cell line): 700 nM
COc1ccc2[nH]cc(-c3c(-c4c[nH]c5cc(Br)ccc45)c(=O)c3=O)c2c1 [2am, 3-(6-Bromo-1H-indol-3-yl)-4-(5-methoxy-1H-indol-3-yl)cyclobut-3-ene-1,2-dione]		9.55 ± 5.8	
COc1ccc2[nH]cc(-c3c(-c4c[nH]c5cccc(Br)c45)c(=O)c3=O)c2c1 [2an, 3-(4-Bromo-1H-indol-3-yl)-4-(5-methoxy-1H-indol-3-yl)cyclobut-3-en-1,2-dione]		25.7 ± 2.7	
COc1ccc2c(c1)c(-c1c(-c3c[nH]c4ccc(Br)cc34)c(=O)c1=O)cn2C [2ao, 3-(5-Bromo-1H-indol-3-yl)-4-(5-methoxy-1-methyl-1H-indol-3-yl)cyclobut-3-en-1,2-dione]	0.504	95.4 ± 1.1	IC50 [1, 5]: 0.5 µM; IC50 [1, 4]: 0.54 µM; Selectivity Index (SI) = IC50, THP-1/IC50, Pf (human THP-1 cell line): 6.3; IC50 (human THP-1 cell line): 3130 nM
O=c1c(-c2c[nH]c3ccc(O)cc23)c(-c2c[nH]c3ccc(Br)cc23)c1=O [2ap, 3-(5-Bromo-1H-indol-3-yl)-4-(5-hydroxy-1H-indol-3-yl)cyclobut-3-ene-1,2-dione]		2.52 ± 1.4	
O=c1c(-c2c[nH]c3ccc(I)cc23)c(-c2c[nH]c3ccc(I)cc23)c1=O [2aq, 3,4-Bis(5-iodo-1H-indol-3-yl)cyclobut-3-ene-1,2-dione]		1.79 ± 1.8	
O=c1c(-c2c[nH]c3ccccc23)c(-c2c[nH]c3ccc(Br)cc23)c1=O [2b, 3-(5-Bromo-1H-indol-3-yl)-4-(1H-indol-3-yl)cyclobut-3-ene-1,2-dione]	3.02		IC50 [1, 5]: 3.02 µM; IC50 [1, 4]: 3 µM; Selectivity Index (SI) = IC50, THP-1/IC50, Pf (human THP-1 cell line): 7.6; IC50 (human THP-1 cell line): 23000 nM
O=c1c(-c2c[nH]c3ccccc23)c(-c2c[nH]c3ccc(Cl)cc23)c1=O [2c, 3-(5-Chloro-1H-indol-3-yl)-4-(1H-indol-3-yl)cyclobut-3-ene-1,2-dione]	4.23		
O=c1c(-c2c[nH]c3ccccc23)c(-c2c[nH]c3ccc(OCc4ccccc4)cc23)c1=O [2e, 3-[5-(Benzyloxy)-1H-indol-3-yl]-4-(1H-indol-3-yl)cyclobut-3-ene-1,2-dione]		-4.43 ± 10.6	
N#Cc1ccc2[nH]cc(-c3c(-c4c[nH]c5ccccc45)c(=O)c3=O)c2c1 [2f, 3-[2-(1H-Indol-3-yl)-3,4-dioxocyclobut-1-ene-1-yl]-1H-indol-5-carbonitrile]	6.72		
Cc1[nH]c2ccccc2c1-c1c(-c2c[nH]c3ccccc23)c(=O)c1=O [2g, 3-(1H-Indol-3-yl)-4-(2-methyl-1H-indol-3-yl)cyclobut-3-ene-1,2-dione]	> 30		
Cn1cc(-c2c(-c3cn(C)c4ccccc34)c(=O)c2=O)c2ccccc21 [2i, 3,4-Bis(1-methyl-1H-indol-3-yl)cyclobut-3-ene-1,2-dione]		3.53 ± 1.7	
O=c1c(-c2c(-c3ccccc3)[nH]c3ccccc23)c(-c2c(-c3ccccc3)[nH]c3ccccc23)c1=O [2m, 3,4-Bis(2-phenyl-1H-indol-3-yl)cyclobut-3-ene-1,2-dione]	2.47		
O=c1c(-c2c[nH]c3ccc(Br)cc23)c(-c2c[nH]c3ccc(Br)cc23)c1=O [2o, 3,4-Bis(5-bromo-1H-indol-3-yl)cyclobut-3-ene-1,2-dione]	> 30		
N#Cc1ccc2[nH]cc(-c3c(-c4c[nH]c5ccc(C#N)cc45)c(=O)c3=O)c2c1 [2p, 3,3’-(3,4-Dioxocyclobut-1-ene-1,2-diyl)bis(1H-indole-5-carbonitrile)]		-3.1 ± 0.9	
Cn1cc(-c2c(-c3c[nH]c4ccc(Br)cc34)c(=O)c2=O)c2ccccc21 [2t, 3-(5-Bromo-1H-indol-3-yl)-4-(1-methyl-1H-indol-3-yl)cyclobut-3-ene-1,2-dione]		1.38 ± 3.3	
COc1ccc2[nH]cc(-c3c(-c4c(C)[nH]c5ccccc45)c(=O)c3=O)c2c1 [2v, 3-(5-Methoxy-1H-indol-3-yl)-4-(2-methyl-1H-indol-3-yl)cyclobut-3-ene-1,2-dione]	10		
Cc1[nH]c2ccccc2c1-c1c(-c2c(-c3ccccc3)[nH]c3ccccc23)c(=O)c1=O [2w, 3-(2-Methyl-1H-indol-3-yl)-4-(2-phenyl-1H-indol-3-yl)cyclobut-3-ene-1,2-dione]	9.26		
Cc1[nH]c2ccccc2c1-c1c(-c2c[nH]c3ccc(Br)cc23)c(=O)c1=O [2x, 3-(5-Bromo-1H-indol-3-yl)-4-(2-methyl-1H-indol-3-yl)cyclobut-3-ene-1,2-dione]	> 30		
CN(CC[C@H](N)CC(=O)N[C@H]1C=C[C@H](n2ccc(N)nc2=O)O[C@@H]1C(=O)O)C(=N)N [BSD, Blasticidin, reference compound]			Inhibition at 3 µM [%] ([1]; 3 µM test compound, 48 h, P. falciparum NF54-luc erythrocytic stages): 97.6 ± 0.5%; IC50 ([1]; Table 1, 48 h incubation, luminescence viability readout, read-out: IC50 [µM], concentration for 50% inhibition of P. falciparum (NF54-luc strain) erythrocytic stages): 0.288 µM
CN1C(=O)C(c2c[nH]c3ccccc23)=C(c2c[nH]c3ccccc23)C1=O [compound 8, reference compound]	4	34.6 ± 0.8	
